By IC50 is commonly meant the concentration that gives 50% inhibition.

In this assay the test system is HSV-1. Nature of the assay: HSV-1 replication in infected Vero 76 cells, viral DNA detected by hybridization capture. Type of assay: cell-based, herpes simplex virus 1. The settings on record: Human alphaherpesvirus 1; HSV-1, Vero 76 cells, MOI=0.001, 40-48 hours incubation. As to the method:
Vero 76 cells were maintained in MEM with Earle's salts, L-glutamine, 8% FBS (Hyclone, A-1111-L) and 100 units/mL Penicillin-100 μg/mL Streptomycin. For assay conditions, FBS was reduced to 2%. Cells are seeded into 96-well tissue culture plates at a density of 5×10^4 cells/well after being incubated for 45 min at 37° C. in the presence of HSV-1 or HSV-2 (MOI=0.001). Test compounds are added to the wells and the plates are incubated at 37° C. for 40-48 hours. Cell lysates are prepared as follows: media was removed and replaced with 150 μL/well 0.2 N NaOH with 1% Igepal CA 630 or NP-40. Plates were incubated up to 14 days at room temperature in a humidified chamber to prevent evaporation.
For the detection probe, a gel-purified, digoxigenin-labeled, 710-bp PCR fragment of the HSV UL-15 sequence was utilized. PCR conditions included 0.5 μM primers, 180 μM dTTP, 20 μM dUTP-digoxigenin (Boehringer Mannheim 1558706), 200 μM each of dATP, dCTP, and dGTP, 1× PCR Buffer II (Perkin Elmer), 2.5 mM MgCl2, 0.025 units/μL of AmpliTaq Gold polymerase (Perkin Elmer), and 5 ng of gel-purified HSV DNA per 100 μL Extension conditions were 10 min at 95° C., followed by 30 cycles of 95° C. for 1 min. 55° C. for 30 sec. and 72° C. for 2 min. The amplification was completed with a 10-min incubation at 72° C. […] Single-stranded transcripts were purified with Promega M13 Wizard kits. The final product was mixed 1:1 with a mixture of 6 M GuSCN, 100 mM EDTA and 200 μg/mL herring sperm DNA and stored at 4° C.
The capture DNA plasmid (HSV UL13 region in pUC) was linearized by cutting with Xbal, denatured for 15 min at 95° C. and diluted immediately into Reacti-Bind DNA Coating Solution (Pierce, 17250, diluted 1:1 with TE buffer, pH 8) at 1 ng/μL. 75 μL/well were added to Corning (#3922 or 9690) white 96-well plates and incubated at room temperature for at least 4 hrs before washing twice with 300 μL/well 0.2×SSC/0.05% Tween-20 (SSC/T buffer). The plates were then incubated overnight at room temperature with 150 μL/well 0.2 N NaOH, 1% IGEPAL and 10 μg/mL herring sperm DNA.
Twenty-seven (27) μL of cell lysate was combined with 45 μL of hybridization solution (final concentration: 3M GuSCN, 50 mM EDTA, 100 μg/ml salmon sperm DNA, 5× Denhardt's solution, 0.25×APE, and 5 ng of the digoxigenin-labeled detection probe). APE is 1.5 M NH4-acetate, 0.15 M ammonium phosphate monobasic, and 5 mM EDTA adjusted to pH 6.0. Mineral oil (50 μL) was added to prevent evaporation. The hybridization plates were incubated at 95° C. for 10 minutes to denature the DNA, then incubated at 42° C. overnight. The wells were washed 6× with 300 μL/well SSC/T buffer then incubated with 75 μL/well anti-digoxigenin- HRP-conjugated antibody (Boehringer Mannheim 1207733, 1:5000 in TE) for 30 min at room temperature. The wells were washed 6× with 300 μL/well with PBS/0.05% Tween-20 before 75 μL/well SuperSignal LBA substrate (Pierce) was added. The plates were incubated at room temperature for 30 minutes and chemiluminescence was measured in a Wallac Victor reader.
The following results were obtained for HSV-1.
Turning to `COc1ccc(-c2nn3c(Sc4ccccc4)cc(NC4CCCC4)cc3c2-c2ccnc(NC3CCCC3)n2)cc1` [Example 12, N-Cyclopentyl-3-[2-(cyclopentylamino)-4-pyrimidinyl]-2-(4-methoxyphenyl)-7-(phenylsulfanyl)pyrazolo[1,5-α]pyridin-5-amine], the IC50 was determined as 2000 nM.
In the case of `Cc1cc(NC2CCCC2)cc2c(-c3ccnc(NC4CCCC4)n3)c(-c3ccc(F)cc3)nn12` [Example 3, N-Cyclopentyl-3-[2-(cyclopentylamino)-4-pyrimidinyl]-2-(4-fluorophenyl)-7-methylpyrazolo[1,5-α]pyridin-5-amine] it was 322 nM; in that of `COCCOc1cc(NC2CCCC2)cc2c(-c3ccnc(NC4CCCC4)n3)c(-c3ccc(F)cc3)nn12` [Example 6, N-Cyclopentyl-3-[2-(cyclopentylamino)-4-pyrimidinyl]-2-(4-fluorophenyl)-7-(2-methoxyethoxy)pyrazolo[1,5-α]pyridin-5-amine], 82 nM; in that of `COc1ccc(-c2nn3c(SC(C)C)cc(NC4CCCC4)cc3c2-c2ccnc(NC3CCCC3)n2)cc1` [Example 11, N-Cyclopentyl-3-[2-(cyclopentylamino)-4-pyrimidinyl]-7-(isopropylsulfanyl)-2-(4-methoxyphenyl)pyrazolo[1,5-α]pyridin-5-amine], 175 nM.
In the case of `CCOc1cc(NC2CCCC2)cc2c(-c3ccnc(NC4CCCC4)n3)c(-c3ccc(F)cc3)nn12` [Example 4, N-Cyclopentyl-3-[2-(cyclopentylamino)-4-pyrimidinyl]-7-ethoxy-2-(4-fluorophenyl)pyrazolo[1,5-α]pyridin-5-amine] it was 160 nM.
The value for `CSc1cc(NC2CCCC2)cc2c(-c3ccnc(NC4CCCC4)n3)c(-c3ccc(F)cc3)nn12` [Example 5, N-Cyclopentyl-3-[2-(cyclopentylamino)-4-pyrimidinyl]-2-(4-fluorophenyl)-7-(methylsulfanyl)pyrazolo[1,5-α]pyridin-5-amine] was 130 nM.
For the compound `CCSc1cc(NC2CCCC2)cc2c(-c3ccnc(NC4CCCC4)n3)c(-c3ccc(F)cc3)nn12` [Example 2, N-Cyclopentyl-3-[2-(cyclopentylamino)-4-pyrimidinyl]-7-(ethylsulfanyl)-2-(4-fluorophenyl)pyrazolo[1,5-δ]pyridin-5-amine], the IC50 came to 74 nM.
For the compound `CC(C)Sc1cc(NC2CCCC2)cc2c(-c3ccnc(NC4CCCC4)n3)c(-c3ccc(F)cc3)nn12` [Example 13, N-Cyclopentyl-3-[2-(cyclopentylamino)-4-pyrimidinyl]-2-(4-fluorophenyl)-7-(isopropylsulfanyl)pyrazolo[1,5-α]pyridin-5-amine], 260 nM corresponded to half-maximal inhibition (IC50).
For `COc1ccc(-c2nn3c(SC)cc(NC4CCCC4)cc3c2-c2ccnc(NC3CCCC3)n2)cc1` [Example 9, N-Cyclopentyl-3-[2-(cyclopentylamino)-4-pyrimidinyl]-2-(4-methoxyphenyl)-7-(methylsulfanyl)pyrazolo[1,5-α]pyridin-5-amine], half-maximal inhibition (IC50) required 135 nM.
For the compound `CCSc1cc(NC2CCCC2)cc2c(-c3ccnc(NC4CCCC4)n3)c(-c3ccc(OC)cc3)nn12` [Example 10, N-Cyclopentyl-3-[2-(cyclopentylamino)-4-pyrimidinyl]-7-(ethylsulfanyl)-2-(4-methoxyphenyl)pyrazolo[1,5-α]pyridin-5-amine], 46 nM corresponded to half-maximal inhibition (IC50).

Values taken from patent publication US20040214834A1, “Pyrazolo-pyridines for the treatment of herpes infections” (priority 2001, published 2004).
